Assay results reported in ChEMBL document CHEMBL5303573, “Mapping human microbiome drug metabolism by gut bacteria and their genes” (Nature, 2019).

What was measured:
[1] = bacteroides thetaiotaomicron, 12 h, 2 µM
Description: The drug is tested on Bacteroides thetaiotaomicron strain: VPI-5482 for biotransformation. The drug concentrations were measured before and after a 12-h incubation by liquid-chromatography-coupled mass spectrometry (LC–MS)

[2] = The drug is tested on Bacteroides caccae strain: ATCC43185 for biotransformation. The drug concentrations were measured before and after a 12-h incubation by liquid-chromatography-coupled mass spectrometry (LC–MS); conditions: 2 µM
[3] = limosilactobacillus reuteri cf48-3a, 12 h, 2 µM
Description: The drug is tested on Lactobacillus reuteri CF48-3A strain: BEI HM-102 for biotransformation. The drug concentrations were measured before and after a 12-h incubation by liquid-chromatography-coupled mass spectrometry (LC–MS)

[4] = The drug is tested on Bacteroides fragilis strain: HMW610 for biotransformation. The drug concentrations were measured before and after a 12-h incubation by liquid-chromatography-coupled mass spectrometry (LC–MS); conditions: 2 µM
[5] = bacteroides stercoris, 12 h, 2 µM
Description: The drug is tested on Bacteroides stercoris strain: ATCC43183 for biotransformation. The drug concentrations were measured before and after a 12-h incubation by liquid-chromatography-coupled mass spectrometry (LC–MS)

[6] = The drug is tested on Clostridium scindens strain: ATCC35704 for biotransformation. The drug concentrations were measured before and after a 12-h incubation by liquid-chromatography-coupled mass spectrometry (LC–MS); conditions: 2 µM
[7] = The drug is tested on Enterobacter cancerogenus strain: ATCC35316 for biotransformation. The drug concentrations were measured before and after a 12-h incubation by liquid-chromatography-coupled mass spectrometry (LC–MS); conditions: 2 µM
[8] = bacteroides thetaiotaomicron, 12 h, 2 µM; remark: listed apart in the source
Description: The drug is tested on Bacteroides thetaiotaomicron strain: 3731 for biotransformation. The drug concentrations were measured before and after a 12-h incubation by liquid-chromatography-coupled mass spectrometry (LC–MS)

[9] = The drug is tested on Collinsella intestinalis strain: DSM13280 for biotransformation. The drug concentrations were measured before and after a 12-h incubation by liquid-chromatography-coupled mass spectrometry (LC–MS); conditions: 2 µM
[10] = The drug is tested on Bifidobacterium breve strain: DSM20213 for biotransformation. The drug concentrations were measured before and after a 12-h incubation by liquid-chromatography-coupled mass spectrometry (LC–MS); conditions: 2 µM
[11] = bifidobacterium adolescentis, 12 h, 2 µM
Description: The drug is tested on Bifidobacterium adolescentis strain: ATCC 15703 for biotransformation. The drug concentrations were measured before and after a 12-h incubation by liquid-chromatography-coupled mass spectrometry (LC–MS)

[12] = The drug is tested on Escherichia coli strain: BW25113 for biotransformation. The drug concentrations were measured before and after a 12-h incubation by liquid-chromatography-coupled mass spectrometry (LC–MS); conditions: 2 µM
[13] = The drug is tested on Bacteroides pectinophilus strain: ATCC43243 for biotransformation. The drug concentrations were measured before and after a 12-h incubation by liquid-chromatography-coupled mass spectrometry (LC–MS); conditions: 2 µM
[14] = The drug is tested on Eubacterium hallii strain: DSM3353 for biotransformation. The drug concentrations were measured before and after a 12-h incubation by liquid-chromatography-coupled mass spectrometry (LC–MS); conditions: anaerobutyricum hallii, 2 µM
[15] = parabacteroides distasonis, 12 h, 2 µM
Description: The drug is tested on Parabacteroides distasonis strain: ATCC8503 for biotransformation. The drug concentrations were measured before and after a 12-h incubation by liquid-chromatography-coupled mass spectrometry (LC–MS)

[16] = The drug is tested on Bifidobacterium ruminantium strain: fecal isolate for biotransformation. The drug concentrations were measured before and after a 12-h incubation by liquid-chromatography-coupled mass spectrometry (LC–MS); conditions: 2 µM
[17] = The drug is tested on Clostridium asparagiforme strain: DSM15981 for biotransformation. The drug concentrations were measured before and after a 12-h incubation by liquid-chromatography-coupled mass spectrometry (LC–MS); format: ADME; design: dose 2 uM, timepoint 0 vs 12 hours; conditions: enterocloster asparagiformis, 2 µM
[18] = bacteroides intestinalis, 12 h, 2 µM
Description: The drug is tested on Bacteroides intestinalis strain: DSM17393 for biotransformation. The drug concentrations were measured before and after a 12-h incubation by liquid-chromatography-coupled mass spectrometry (LC–MS)

[19] = The drug is tested on Odoribacter splanchnicus strain: fecal isolate for biotransformation. The drug concentrations were measured before and after a 12-h incubation by liquid-chromatography-coupled mass spectrometry (LC–MS); conditions: 2 µM
[20] = The drug is tested on Bifidobacterium longum subsp. Infantis strain: CCUG52486 for biotransformation. The drug concentrations were measured before and after a 12-h incubation by liquid-chromatography-coupled mass spectrometry (LC–MS); conditions: 2 µM

Row | Bacterial Biotransformation [1] | Bacterial Biotransformation [2] | Bacterial Biotransformation [3] | Bacterial Biotransformation [4] | Bacterial Biotransformation [5] | Bacterial Biotransformation [6] | Bacterial Biotransformation [7] | Bacterial Biotransformation [8] | Bacterial Biotransformation [9] | Bacterial Biotransformation [10] | Bacterial Biotransformation [11] | Bacterial Biotransformation [12] | Bacterial Biotransformation [13] | Bacterial Biotransformation [14] | Bacterial Biotransformation [15] | Bacterial Biotransformation [16] | Bacterial Biotransformation [17] | Bacterial Biotransformation [18] | Bacterial Biotransformation [19] | Bacterial Biotransformation [20] | Structure (SMILES)
1 | Compound NOT metabolized | Compound NOT metabolized | Compound NOT metabolized | Compound NOT metabolized | Compound NOT metabolized | Compound NOT metabolized | Compound NOT metabolized | Compound NOT metabolized | Compound NOT metabolized | Compound NOT metabolized | Compound NOT metabolized | Compound NOT metabolized | Compound NOT metabolized | Compound NOT metabolized | Compound NOT metabolized | Compound NOT metabolized | Compound NOT metabolized | Compound NOT metabolized | Compound NOT metabolized | Compound NOT metabolized | CN1CCc2cccc3c2[C@H]1Cc1ccc(O)c(O)c1-3 [APOMORPHINE]
2 | Compound metabolized | Compound metabolized | Compound metabolized | Compound metabolized | Compound metabolized | Compound metabolized | Compound metabolized | Compound metabolized | Compound metabolized | Compound metabolized | Compound metabolized | Compound metabolized | Compound metabolized | Compound metabolized | Compound metabolized | Compound metabolized | Compound NOT metabolized | Compound metabolized | Compound metabolized | Compound metabolized | CC(C)(Oc1ccc(CCNC(=O)c2ccc(Cl)cc2)cc1)C(=O)O [BEZAFIBRATE]
3 | Compound metabolized | Compound metabolized | Compound metabolized | Compound metabolized | Compound metabolized | Compound metabolized | Compound metabolized | Compound metabolized | Compound metabolized | Compound metabolized | Compound metabolized | Compound metabolized | Compound metabolized | Compound metabolized | Compound metabolized | Compound metabolized | Compound metabolized | Compound metabolized | Compound metabolized | Compound metabolized | CC(=O)Oc1ccc(C(c2ccc(OC(C)=O)cc2)c2ccccn2)cc1 [BISACODYL]
4 | Compound metabolized | Compound NOT metabolized | Compound NOT metabolized | Compound metabolized | Compound metabolized | Compound NOT metabolized | Compound NOT metabolized | Compound metabolized | Compound NOT metabolized | Compound NOT metabolized | Compound NOT metabolized | Compound NOT metabolized | Compound NOT metabolized | Compound NOT metabolized | Compound NOT metabolized | Compound NOT metabolized | Compound metabolized | Compound NOT metabolized | Compound metabolized | Compound NOT metabolized | CCCC1O[C@@H]2C[C@H]3[C@@H]4CCC5=CC(=O)C=C[C@]5(C)[C@H]4[C@@H](O)C[C@]3(C)[C@]2(C(=O)CO)O1 (stereo not given in full) [BUDESONIDE]
5 | Compound metabolized | Compound metabolized | Compound NOT metabolized | Compound NOT metabolized | Compound metabolized | Compound NOT metabolized | Compound metabolized | Compound metabolized | Compound NOT metabolized | Compound NOT metabolized | Compound NOT metabolized | Compound metabolized | Compound NOT metabolized | Compound metabolized | Compound metabolized | Compound metabolized | Compound metabolized | Compound metabolized | Compound NOT metabolized | Compound NOT metabolized | COc1ccccc1OCCNCC(O)COc1cccc2[nH]c3ccccc3c12 (stereo not given) [CARVEDILOL]
6 | Compound metabolized | Compound metabolized | Compound metabolized | Compound metabolized | Compound metabolized | Compound metabolized | Compound metabolized | Compound metabolized | Compound metabolized | Compound metabolized | Compound metabolized | Compound metabolized | Compound metabolized | Compound metabolized | Compound metabolized | Compound metabolized | Compound metabolized | Compound metabolized | Compound metabolized | Compound metabolized | CC(=O)OCC(=O)[C@@]12N=C(C)O[C@@H]1C[C@H]1[C@@H]3CCC4=CC(=O)C=C[C@]4(C)[C@H]3[C@@H](O)C[C@@]12C [DEFLAZACORT]

Row | Structure (SMILES) | Bacterial Biotransformation [1] | Bacterial Biotransformation [2] | Bacterial Biotransformation [3] | Bacterial Biotransformation [4] | Bacterial Biotransformation [5] | Bacterial Biotransformation [6] | Bacterial Biotransformation [7] | Bacterial Biotransformation [8] | Bacterial Biotransformation [9] | Bacterial Biotransformation [10] | Bacterial Biotransformation [11] | Bacterial Biotransformation [12] | Bacterial Biotransformation [13] | Bacterial Biotransformation [14] | Bacterial Biotransformation [15] | Bacterial Biotransformation [16] | Bacterial Biotransformation [17] | Bacterial Biotransformation [18] | Bacterial Biotransformation [19] | Bacterial Biotransformation [20]
7 | C[C@@H]1CC[C@H]2[C@@H](C)C(=O)O[C@@H]3O[C@@]4(C)CC[C@@H]1[C@]32OO4 [ARTEMISININ] | Compound metabolized | Compound metabolized | Compound metabolized | Compound metabolized | Compound metabolized | Compound metabolized | Compound metabolized | Compound metabolized | Compound metabolized | Compound metabolized | Compound metabolized | Compound metabolized | Compound metabolized | Compound metabolized | Compound metabolized | Compound metabolized | Compound metabolized | Compound metabolized | Compound metabolized | Compound metabolized
8 | CC(C)C[C@H]1C(=O)N2CCC[C@H]2[C@]2(O)O[C@](NC(=O)[C@@H]3C=C4c5cccc6[nH]c(Br)c(c56)C[C@H]4N(C)C3)(C(C)C)C(=O)N12.CS(=O)(=O)O [BROMOCRIPTINE MESYLATE] | Compound metabolized | Compound metabolized | Compound metabolized | Compound metabolized | Compound metabolized | Compound metabolized | Compound metabolized | Compound metabolized | Compound metabolized | Compound metabolized | Compound metabolized | Compound metabolized | Compound metabolized | Compound metabolized | Compound metabolized | Compound metabolized | Compound metabolized | Compound metabolized | Compound metabolized | Compound metabolized
